Literature values in PubChem BioAssay AID1259409 (Chemical Carcinogenesis Research Information System (CCRIS), 2018).

Test system: rodent chemically induced tumor inhibition, incidence and multiplicity
Assay: CCRIS tumor inhibitor studies

For `CC(C)C[C@H]1C(=O)N2CCC[C@H]2[C@]2(O)O[C@](NC(=O)[C@@H]3C=C4c5cccc6[nH]c(Br)c(c56)C[C@H]4N(C)C3)(C(C)C)C(=O)N12`, the “tumour outcome (control, treated, inhibition, significance)” value (Carcinogen: 7,12-DIMETHYLBENZ[A]ANTHRACENE, 57-97-6, Dose [Inhibitor]: 0.4 MG/D FROM 90 TO 150 D OF AGE BEGINNING 30 D POST CARCINOGEN TREATMENT (STUDY DURATION: 9 MO AFTER DMBA TREATMENT), Route [Inhibitor]: SUBCUTANEOUS, Species: RAT, Strain/Sex: LONG-EVANS/FEMALE, Target Tissue: Type of Lesion: MAMMARY GLAND: CARCINOMA, Dose [Carcinogen]: 20 MG ONCE AT 60 D OF AGE, Promoter: NONE USED) is listed as 20%, 38%, -90%, not significant, the “tumour outcome (control, treated, inhibition, significance)” value (Carcinogen: 7,12-DIMETHYLBENZ[A]ANTHRACENE, 57-97-6, Dose [Inhibitor]: 0.4 MG/D FROM 90 TO 150 D OF AGE BEGINNING 30 D POST CARCINOGEN TREATMENT (STUDY DURATION: 9 MO AFTER DMBA TREATMENT), Route [Inhibitor]: SUBCUTANEOUS, Species: RAT, Strain/Sex: LONG-EVANS/FEMALE, Target Tissue: Type of Lesion: MAMMARY GLAND: FIBROADENOMA, Dose [Carcinogen]: 20 MG ONCE AT 60 D OF AGE, Promoter: NONE USED) is listed as 16%, 0%, 100%, not significant and the “tumour outcome (control, treated, inhibition, significance)” value (Carcinogen: 7,12-DIMETHYLBENZ[A]ANTHRACENE, 57-97-6, Dose [Inhibitor]: 0.4 MG/D FROM 90 TO 150 D OF AGE BEGINNING 30 D POST CARCINOGEN TREATMENT (STUDY DURATION: 9 MO AFTER DMBA TREATMENT), Route [Inhibitor]: SUBCUTANEOUS, Species: RAT, Strain/Sex: SPRAGUE-DAWLEY/FEMALE, Target Tissue: Type of Lesion: MAMMARY GLAND: CARCINOMA, Dose [Carcinogen]: 5 MG ONCE AT 60 D OF AGE, Promoter: NONE USED) is listed as 85%, 52%, 39%, p<0.05. The “tumour outcome (control, treated, inhibition, significance)” value (Carcinogen: 7,12-DIMETHYLBENZ[A]ANTHRACENE, 57-97-6, Dose [Inhibitor]: 0.4 MG/D FROM 90 TO 150 D OF AGE BEGINNING 30 D POST CARCINOGEN TREATMENT (STUDY DURATION: 9 MO AFTER DMBA TREATMENT), Route [Inhibitor]: SUBCUTANEOUS, Species: RAT, Strain/Sex: SPRAGUE-DAWLEY/FEMALE, Target Tissue: Type of Lesion: MAMMARY GLAND: FIBROADENOMA, Dose [Carcinogen]: 5 MG ONCE AT 60 D OF AGE, Promoter: NONE USED) was 22%, 10%, 54%, not significant, the “tumour outcome (control, treated, inhibition, significance)” value (Carcinogen: 7,12-DIMETHYLBENZ[A]ANTHRACENE, 57-97-6, Dose [Inhibitor]: 0.4 MG/D FROM 90 TO 150 D OF AGE BEGINNING 30 D POST CARCINOGEN TREATMENT (STUDY DURATION: 12 MO AFTER DMBA TREATMENT), Route [Inhibitor]: SUBCUTANEOUS, Species: RAT, Strain/Sex: SPRAGUE-DAWLEY/FEMALE, Target Tissue: Type of Lesion: MAMMARY GLAND: CARCINOMA, Dose [Carcinogen]: 1.25 MG ONCE AT 60 D OF AGE, Promoter: NONE USED) was 15%, 10%, 33%, not significant and the “tumour outcome (control, treated, inhibition, significance)” value (Carcinogen: 7,12-DIMETHYLBENZ[A]ANTHRACENE, 57-97-6, Dose [Inhibitor]: 0.4 MG/D FROM 90 TO 150 D OF AGE BEGINNING 30 D POST CARCINOGEN TREATMENT (STUDY DURATION: 12 MO AFTER DMBA TREATMENT), Route [Inhibitor]: SUBCUTANEOUS, Species: RAT, Strain/Sex: SPRAGUE-DAWLEY/FEMALE, Target Tissue: Type of Lesion: MAMMARY GLAND: FIBROADENOMA, Dose [Carcinogen]: 1.25 MG ONCE AT 60 D OF AGE, Promoter: NONE USED) was 73%, 65%, 11%, not significant. For the same compound, the “tumour outcome (control, treated, inhibition, significance)” value (Carcinogen: 7,12-DIMETHYLBENZ[A]ANTHRACENE, 57-97-6, Dose [Inhibitor]: 0.4 MG/D FROM 90 TO 150 D OF AGE BEGINNING POST CARCINOGEN TREATMENT (STUDY DURATION: 6 MO AFTER DMBA TREATMENT), Route [Inhibitor]: SUBCUTANEOUS, Species: RAT, Strain/Sex: SPRAGUE-DAWLEY/FEMALE, Target Tissue: Type of Lesion: MAMMARY GLAND: CARCINOMA, Dose [Carcinogen]: 20 MG ONCE AT 60 D OF AGE, Promoter: NONE USED) was 96%, 87%, 9%, p<0.05, the “tumour outcome (control, treated, inhibition, significance)” value (Carcinogen: 7,12-DIMETHYLBENZ[A]ANTHRACENE, 57-97-6, Dose [Inhibitor]: 0.4 MG/D FROM 93 TO 160 D OF AGE BEGINNING 30 D POST CARCINOGEN TREATMENT (STUDY DURATION: 9 MO AFTER DMBA TREATMENT), Route [Inhibitor]: SUBCUTANEOUS, Species: RAT, Strain/Sex: LEWIS/FEMALE, Target Tissue: Type of Lesion: MAMMARY GLAND: CARCINOMA, Dose [Carcinogen]: 10 MG AT 56 AND 63 D OF AGE, Promoter: NONE USED) was 94%, 55%, 41%, p<0.05 and the “tumour outcome (control, treated, inhibition, significance)” value (Carcinogen: 7,12-DIMETHYLBENZ[A]ANTHRACENE, 57-97-6, Dose [Inhibitor]: 6 MG/KG 6/WK FOR 80 OR 100 D BEGINNING 1 D POST CARCINOGEN DOSE (STUDY DURATION: 245 D), Route [Inhibitor]: INTRAPERITONEAL, Species: RAT, Strain/Sex: CFE/FEMALE, Target Tissue: Type of Lesion: MAMMARY GLAND: NOT SPECIFIED, Dose [Carcinogen]: 2.5 MG 1/D FOR 2 D, Promoter: NONE USED) was 17/18 (94%), 16/19 (84%), 11%, not significant. For the same compound, the “tumour outcome (control, treated, inhibition, significance)” value (Carcinogen: 17-BETA-ESTRADIOL, 50-28-2, Dose [Inhibitor]: 0.1 MG, DAILY WITH CARCINOGEN AT 1 MO OF AGE FOR 22 MO (STUDY DURATION: 22 MO), Route [Inhibitor]: SUBCUTANEOUS, Species: MOUSE, Strain/Sex: C3H/FEMALE, Target Tissue: Type of Lesion: MAMMARY GLAND: TUMOR, Dose [Carcinogen]: 0.5 MG/L IN DRINKING WATER DAILY CONCURRENTLY WITH INHIBITOR FOR 22 MO, Promoter: NONE USED) was 27/99 (27%), 9/100 (9%), 67%, p<0.05, the “tumour outcome (control, treated, inhibition, significance)” value (Carcinogen: 17BETA-ESTRADIOL, 50-28-2, Dose [Inhibitor]: 0.1 MG 1/D FOR 19 MO BEGINNING CONCURRENTLY WITH CARCINOGEN DOSE (STUDY DURATION: 19 MO), Route [Inhibitor]: SUBCUTANEOUS, Species: MOUSE, Strain/Sex: C3H/FEMALE, Target Tissue: Type of Lesion: MAMMARY GLAND: CARCINOMA, Dose [Carcinogen]: 0.5 MG/L IN DRINKING WATER BEGINNING AT 30 D OF AGE FOR 19 MO, Promoter: NONE USED) was 27/99 (27%), 9/100 (9%), 67%, p<0.001 and the “tumour outcome (control, treated, inhibition, significance)” value (Carcinogen: AZOXYMETHANE, 25843-45-2, Dose [Inhibitor]: 0, 2 MG/KG BW SUSPENDED IN 1 ML/MG OLIVE OIL 1/2 D FOR STUDY DURATION (STUDY DURATION: 30 WK), Route [Inhibitor]: SUBCUTANEOUS, Species: RAT, Strain/Sex: WISTAR/MALE, Target Tissue: Type of Lesion: COLON: TUMOR, Dose [Carcinogen]: 7.4 MG/KG IN 0.9% NACL 1/WK FOR 10 WK) was 9/17 (53%), 8/20 (40%), 25%, not significant. The “tumour outcome (control, treated, inhibition, significance)” value (Carcinogen: DIETHYLSTILBESTROL, 56-53-1, Dose [Inhibitor]: 0.5 MG 5/WK FOR 9 MO CONCURRENTLY WITH CARCINOGEN DOSE (90 MG TOTAL DOSE) (STUDY DURATION: 9 MO), Route [Inhibitor]: SUBCUTANEOUS, Species: HAMSTER, Strain/Sex: SYRIAN/MALE, Target Tissue: Type of Lesion: KIDNEY: EPITHELIAL NEOPLASM, Dose [Carcinogen]: 0.6 MG 3/WK FOR 9 MO (65 MG TOTAL DOSE), Promoter: NONE USED) was 10/12 (83%), 7/12 (58%), 30%, not calculated and the “tumour outcome (control, treated, inhibition, significance)” value (Carcinogen: DIMETHYLBENZ[A]ANTHRACENE, 57-97-6, Dose [Inhibitor]: 1 MG ONCE ON D 2 OF DIESTRUS AND ONCE AT PROESTRUS (STUDY DURATION: 26 WK), Route [Inhibitor]: INTRAPERITONEAL, Species: RAT, Strain/Sex: SPRAGUE-DAWLEY/FEMALE, Target Tissue: Type of Lesion: MAMMARY GLAND: NOT SPECIFIED, Dose [Carcinogen]: 5 MG ONCE AT 50 D OF AGE 30 HR POST 1ST AGENT DOSE, Promoter: NONE USED) was 97%, 84%, 13%, not significant.
